Experimental data taken from article PMC6154605, “Multi-Anti-Parasitic Activity of Arylidene Ketones and Thiazolidene Hydrazines against Trypanosoma cruzi and Leishmania spp” (Molecules : A Journal of Synthetic Chemistry and Natural …, 2017).
Like-named read-outs stand apart in the source and are kept apart here. Marks after values point to notes of the source that are not given here.

Assays:
zebrafish embryos = experiment: Zebrafish embryo toxicity test (LD50)
[1] = tested on: L. infantum promastigotes; experiment: Leishmanicidal activity on promastigotes, resazurin; format: cell-based, Leishmania infantum; conditions: Leishmania infantum, 48 h; read-out: IC50 ± SD Promastigotes L. infantum
Method in brief: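 Promastigotes (2 × 10^6/well) in Schneider's medium with 20% FBS treated with compound dilutions for 48 h at 26 °C. Resazurin reduction read at 570 and 600 nm; IC50 from duplicate experiments, triplicate concentrations.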

[2] = molecular target: T1, LmTIM (triosephosphate isomerase from Leishmania mexicana) (Leishmania mexicana, UniProt P48499); experiment: Inhibition of triosephosphate isomerase; format: biochemical; conditions: read-out: Percentage of Inhibition LmTIM
T1 construct: made in house; host or cells: Escherichia coli
Description: Compounds were dissolved in DMSO. […] The experiments were performed in triplicate.

[3] = tested on: T. cruzi epimastigotes, Tulahuen 2 strain (genotype TcVI); conditions: cited from earlier work
NCTC929 fibroblasts = experiment: Nonspecific cytotoxicity on fibroblasts, resazurin; format: cell-based; conditions: NCTC-929, 24 h; read-out: IC50 ± SD Fibroblast NCTC929
Method in brief: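 NCTC929 murine fibroblasts seeded 3.00 × 10^4 cells/well, grown overnight, then exposed to compounds for 24 h at 37 °C, 5% CO2. Viability read by resazurin reduction (3 h), dual-wavelength absorbance at 490 and 595 nm with background subtracted. Each concentration tested three times.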

[4] = Drug bioconcentration in zebrafish embryos, UV-visible spectroscopy; format: in vivo; conditions: whole embryo extract, 25 µM, incubation 25 µM, volume of measurement 100 µL, read-out: conc. in zebrafish embryos
Description: To get an approximation of the distribution and concentration of GAT1033 (the lipophilic compound) in the embryos, in the presence and absence of the chorion, we conducted a first analysis visualizing the embryos by laser scanning confocal microscopy. […] We then quantified the internal concentration of GAT1033 by UV-visible spectroscopy (Figure 9). To do this, we incubated embryos, with and without chorion, with a fixed dose of the compound for different extensions of time. After this, we performed a standard chemical extraction and quantified using spectrophotometry and checking the integrity of the molecules by thin layer chromatography.
Following the same conditions as those of the embryo toxicity test, five embryos were incubated per well in 6-well plates with 5 mL of 25 μM GAT1033. Embryos were incubated with and without chorion, starting at 6 hpf. The incubation medium containing the compound was exchanged daily. Every 24 h, 30 embryos having the same conditions were taken to extract the compound for quantitation. The embryos were washed three times with aquarium water and then centrifuged at low speed to pull out the total remaining solvent. The embryos were then resuspended in 1 mL of aquarium water and lysed by sonication (Omni Sonic Ruptor Omni Sonic Ruptor 400 Ultrasonic Homogenizer) on an ice bath with 4-times half-intensity-15-second pulses, resting 5 seconds. The extract was incubated with 1 mL of methanol/chloroform (2:1) for 5 min at 25 °C, followed by five chloroform extractions. The organic phase was dried over anhydrous sodium sulfate and evaporated in vacuo. The crude extract was dissolved in 100 µL acetonitrile (Merck, HPLC grade) for spectrophotometric measurements (Spectrophotometer double beam UV-Vis model Cary 60 Agilent Cary WinUV). The calibration curve and all of the experiments were performed with GAT1033 under the same conditions. For this, we used the Beer–Lambert–Bouguer Law (BLB law). Optical data for GAT1033 are: ε = (14.7 ± 0.5) cm^−1mM^−1, λmax = 379 nm, emission 530 nm.

T1 sequence (P48499 whole entry): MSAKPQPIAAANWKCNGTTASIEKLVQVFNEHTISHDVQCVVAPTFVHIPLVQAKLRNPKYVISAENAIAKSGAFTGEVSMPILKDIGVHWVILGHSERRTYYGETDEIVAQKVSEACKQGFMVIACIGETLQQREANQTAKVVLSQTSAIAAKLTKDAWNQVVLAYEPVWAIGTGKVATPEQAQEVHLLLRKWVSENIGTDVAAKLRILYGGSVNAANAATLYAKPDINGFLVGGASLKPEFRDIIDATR

## C=CCn1c(-c2ccc(Cl)cc2)cs\c1=N/N=C/C=C/c1ccco1 [GAT1033]
Zebrafish embryos; dechorionated zebrafish embryos, 72 h incubation
  LD50 without chorion: 27 ± 1 µM
Zebrafish embryos; zebrafish embryos with chorion
  LD50 with chorion: > 100 µM
[1]
  IC50: 2000 ± 200 nM
[2]
  inhibition at 100 µM: 0%
[3]; ratio IC50 mammalian cell / IC50 parasite (epimastigotes)
  SI J774.1/ T. cruzi: 37 ^a
[3]; read-out: IC50 ± SD Epimastigotes T. cruzi
  IC50: 1600 ± 500 nM
NCTC929 fibroblasts
  IC50: 405000 ± 10000 nM
[4]; with chorion
  concentration at 24 h: 0.3 µM
  concentration at 48 h: 4.8 µM
  concentration at 72 h: 1.8 µM
[4]; without chorion
  concentration at 24 h: 0.4 µM
  concentration at 48 h: 7.3 µM
  concentration at 72 h: 8.1 µM
